In brackets after ≈: the same amount, converted by molar mass. One block for each compound: values may come before it.
What was measured:
Cryptococcus neoformans = test: Antifungal activity against Cryptococcus neoformans H99 assessed as inhibition of fungal growth incubated for 24 hrs by agar diffusion method; format: functional
Saccharomyces cerevisiae = test: Antifungal activity against Saccharomyces cerevisiae BY4741 assessed as inhibition of fungal growth incubated for 24 hrs by agar diffusion method; format: functional
A549 = test: Cytotoxicity against human A549 cells assessed as reduction in cell viability incubated for 48 hrs by CCK-8 assay; format: functional, cell-based; conditions: A549, 48 h
HeLa = test: Cytotoxicity against human HeLa cells assessed as reduction in cell viability incubated for 48 hrs by CCK-8 assay; format: functional, cell-based
MCF7 = test: Cytotoxicity against human MCF7 cells assessed as reduction in cell viability incubated for 48 hrs by CCK-8 assay; format: functional, cell-based; conditions: MCF7, 48 h

MIC (Cryptococcus neoformans): > 32 mg/L | MIC (Saccharomyces cerevisiae): > 32 mg/L
SMILES: C[C@@H]1C/C(=C\CC2CC(=O)NC(=O)C2)C(=O)[C@@H](C)C1
IC50 (A549): > 20 µM | IC50 (HeLa): > 20 µM | IC50 (MCF7): > 20 µM

MIC (Cryptococcus neoformans): > 32 mg/L | MIC (Saccharomyces cerevisiae): > 32 mg/L
SMILES: Cc1cc(C)c(O[C@@H]2O[C@@H](C)[C@H](O)[C@@H](O)[C@H]2O)c(C(=O)CC2CC(=O)NC(=O)C2)c1
IC50 (A549): > 20 µM | IC50 (HeLa): > 20 µM | IC50 (MCF7): > 20 µM

SMILES: C[C@@H]1C[C@@H]([C@@H](CC2CC(=O)NC(=O)C2)O[C@H]2O[C@H](CO)[C@@H](O)[C@H](O)[C@H]2O)C(=O)[C@@H](C)C1
MIC (Cryptococcus neoformans): > 32 mg/L | MIC (Saccharomyces cerevisiae): > 32 mg/L | IC50 (A549): > 20 µM | IC50 (HeLa): > 20 µM | IC50 (MCF7): > 20 µM

SMILES: C[C@@H]1C[C@@H]([C@H](O)CC2CC(=O)NC(=O)C2)C(=O)[C@@H](C)C1 [CYCLOHEXIMIDE]
MIC (Cryptococcus neoformans): 2 mg/L (≈ 7.11 µM) | MIC (Saccharomyces cerevisiae): 2 mg/L (≈ 7.11 µM) | IC50 (A549): 0.67 µM | IC50 (HeLa): 1 µM | IC50 (MCF7): 0.53 µM

SMILES: COc1cccc2c1C(=O)c1c(O)c3c(c(O)c1C2=O)C[C@@](O)(C(=O)CO)C[C@@H]3O[C@H]1C[C@H](N)[C@H](O)[C@H](C)O1 [DOXORUBICIN]
IC50 (A549): 0.6 µM | IC50 (HeLa): 0.09 µM | IC50 (MCF7): 0.97 µM
